# Earlier results in article PMC7395068, “The evolution of strategies to minimise the risk of human drug-induced liver injury (DILI) in drug discovery and development” (Archives of Toxicology, 2020).
# Read-outs that look alike come from different tables or passages of the source.
# What was measured:
# [1] = tested on: THLE-Null and THLE-3A4 cells; details: In vitro Assay; ref Gustafsson 2014; cited from earlier work
# [2] = ref Chen 2011; cited from earlier work
# [3] = tested on: HepG2 cells, primary human hepatocytes; details: In vitro Assay; ref Garside 2014; cited from earlier work
# [4] = cited from earlier work
# [5] = cited from earlier work; remark: listed apart in the source
# human hepatocytes = details: cited from earlier work
# rBsep = details: In vitro Assay; ref Dawson 2012; cited from earlier work
# PHH spheroids = details: In vitro Assay; ref Vorrink 2018; cited from earlier work
# PHH = details: In vitro Assay; ref Proctor 2017; cited from earlier work
# [6] = tested on: HepG2 C3A spheroid, BSEP, Glu/Gal in HepG2 cells, bioactivation; details: In vitro Assay; ref Williams 2019; cited from earlier work
# [7] = tested on: THLE or HepG2 cells, isolated mitochondria, BSEP; details: In vitro Assay; ref Aleo 2019; cited from earlier work
# [8] = tested on: primary human hepatocytes, NIH3T3 fibroblasts, BSEP, CYP3A4; details: In vitro Assay; ref Schadt 2015; cited from earlier work
# hLiMTs = details: In vitro Assay; ref Proctor 2017; cited from earlier work
# HepG2 cells [9] = details: In vitro Assay; ref Persson 2013; cited from earlier work
# HepG2 cells [10] = details: In vitro Assay; ref O'Brien 2006; cited from earlier work
# [11] = tested on: isolated mouse liver mitochondria; details: In vitro Assay; ref Porceddu 2012; cited from earlier work
Structure (SMILES),THLE-Null [1],THLE-Null/3A4 [1],DILI Score (FDA) (1-8) [2],Cluster 1-6 +VE Assay [3],Inhibition of rBsep cutoff<1& cmax u>.2 (rBsep),Inhibition of rBsep cutoff<3 (rBsep),In vivo DILI ([4]; ref Schadt 2015),"DILI +VE (5-8), DILI -VE (-4) ([5]; ref Chen 2016)",DILI severity category ([5]; ref Chen 2016),Partition Hybrid HRM Score [7],Ro2 Hybrid HRM Score [7],In vivo DILI ([4]; […]),In vivo DILI ([4]; ref Aleo 2019),In vivo DILI ([4]; ref Dawson 2012),In vivo DILI ([4]; ref Garside 2014),In vivo DILI ([4]; ref Gustafsson 2014),In vivo DILI ([4]; ref O'Brien 2006),In vivo DILI ([4]; ref Porceddu 2012),Structural based (HCI) (HepG2 cells [10]),in vitro data EC2<=1x Cmax [11],other results
COc1cc(C)c(/C=C/C(C)=C/C=C/C(C)=C/C(=O)O)c(C)c1C [acitretin],+VE,+VE,5,+VE,-VE,+VE,,,,,,,,,,,,,,,"In vivo DILI ([4]; in vivo): +VE; DILI +VE (5-8), DILI -VE (-4) ([5]; in vivo): +VE; DILI severity category ([5]; in vivo): vMost-DILI-Concern; Structural based (HCI) (human hepatocytes): -VE"
COC(c1ccccc1)(c1ccccc1)[C@H](Oc1nc(C)cc(C)n1)C(=O)O [ambrisentan],,,5,,,,-VE,-VE,Ambiguous DILI-concern,-VE,-VE,,,,,,,,,,hLiMTs ATP <20 x Cmax (PHH spheroids): -VE; PHH ATP <100uM (PHH): -VE; Bayesian Machine Learning [6]: -VE; In vivo DILI ([4]; ref Proctor 2017): -VE; In vivo DILI ([4]; ref Vorrink 2018): -VE; In vivo DILI ([4]; ref Williams 2019): -VE; Cellular toxicity (3T3 cells) [8]: -VE; Combined Assay [8]: -VE; GSH adduct HML [8]: -VE; Hepatocyte cellular toxicity [8]: -VE; MitoTox 3T3 [8]: -VE; TDI CYP3A4 [8]: -VE; hBSEP inhibition [8]: -VE; hLiMTs ATP <100uM (hLiMTs): -VE
CCCNC(=O)NS(=O)(=O)c1ccc(Cl)cc1 [chlorpropamide],-VE,-VE,2,-VE,-VE,-VE,,+VE,vLess-DILI-Concern,-VE,+VE,+VE,+VE,+VE,+VE,+VE,,,,,
CN(C)/N=N/c1[nH]cnc1C(N)=O [dacarbazine],-VE,-VE,6,-VE,,,,+VE,vMost-DILI-Concern,-VE,+VE,+VE,+VE,,+VE,+VE,,,,,hLiMTs ATP <20 x Cmax (PHH spheroids): +VE (IC20 < 20 × Cmax.tot cut-off); In vivo DILI ([4]; ref Vorrink 2018): +VE
CNCCCN1c2ccccc2CCc2ccccc21 [desipramine],,,3,,,,-VE,-VE,Ambiguous DILI-concern,,+VE,,,,,,,,,,PHH ATP <100uM (PHH): +VE (IC50 threshold of 100 µM); Bayesian Machine Learning [6]: +VE; In vivo DILI ([4]; ref Proctor 2017): +VE; In vivo DILI ([4]; ref Williams 2019): +VE; In vivo DILI ([4]; ref Xu 2008): -VE; hLiMTs ATP <100uM (hLiMTs): +VE (IC50 threshold of 100 µM)
C[C@](N)(Cc1ccc(O)c(O)c1)C(=O)O [methyldopa],-VE,-VE,8,-VE,-VE,-VE,,+VE,vMost-DILI-Concern,,,+VE,,+VE,+VE,+VE,+VE,-VE,-VE,+VE,Cluser analysis (HepG2 cells [9]): -VE; Structural based (HCI) (HepG2 cells [9]): +VE; In vivo DILI ([4]; ref Persson 2013): +VE; in vitro data EC20<=2uM [11]: -VE
CC1=C(CC(=O)O)c2cc(F)ccc2/C1=C\c1ccc([S+](C)[O-])cc1 (stereo not shown) [sulindac],-VE,,8,-VE,+VE,+VE,+VE,+VE,vMost-DILI-Concern,,,+VE,+VE,+VE,+VE,+VE,+VE,+VE,+VE,+VE,"Cluser analysis (HepG2 cells [9]): -VE; Structural based (HCI) (HepG2 cells [9]): -VE; In vivo DILI ([4]; ref Persson 2013): +VE; In vivo DILI ([4]; ref Xu 2008): +VE; Structural based (HCI) (human hepatocytes; In vitro Assay, ref Xu 2008): +VE; in vitro data EC20<=2uM [11]: +VE; Cellular toxicity (3T3 cells) [8]: -VE; Combined Assay [8]: +VE; GSH adduct HML [8]: +VE; Hepatocyte cellular toxicity [8]: -VE; MitoTox 3T3 [8]: -VE; TDI CYP3A4 [8]: -VE; hBSEP inhibition [8]: -VE"
CN(C/C=C/C#CC(C)(C)C)Cc1cccc2ccccc12 [terbinafine],+VE,-VE,8,-VE,,,,+VE,vMost-DILI-Concern,,,,,,+VE,+VE,+VE,+VE,+VE,+VE,in vitro data EC20<=2uM [11]: +VE
